Paper PMC9684079, “Pharmacological targeting of glutamatergic neurons within the brainstem for weight reduction” (Nature Metabolism, 2022)

Legend:
Hcrtr2 = target: T1, Hcrtr2 (Homo sapiens, UniProt O43614); test: radioligand displacement of [3H]EMPA (weak; functional IC50 […]); format: binding
T1 construct: membranes from CHO-K1 cells stably expressing HCRTR2

[1] = target: T2, Nitric Oxide Synthase, inducible (iNOS) (Mus musculus, UniProt P29477); test: biochemical; set-up: Cerep/Eurofins selectivity panel, enzymes, per cent inhibition at 10 uM; conditions: read-out: % Inhibition
T2 construct: gene Nos2

Glucocorticoid = target: T3, Glucocorticoid (Homo sapiens, UniProt P04150); test: biochemical; set-up: Cerep/Eurofins selectivity panel, receptors, channels and transporters, per cent inhibition at 10 uM; conditions: read-out: % Inhibition
T3 construct: gene NR3C1
T3 sequence (P04150 whole entry): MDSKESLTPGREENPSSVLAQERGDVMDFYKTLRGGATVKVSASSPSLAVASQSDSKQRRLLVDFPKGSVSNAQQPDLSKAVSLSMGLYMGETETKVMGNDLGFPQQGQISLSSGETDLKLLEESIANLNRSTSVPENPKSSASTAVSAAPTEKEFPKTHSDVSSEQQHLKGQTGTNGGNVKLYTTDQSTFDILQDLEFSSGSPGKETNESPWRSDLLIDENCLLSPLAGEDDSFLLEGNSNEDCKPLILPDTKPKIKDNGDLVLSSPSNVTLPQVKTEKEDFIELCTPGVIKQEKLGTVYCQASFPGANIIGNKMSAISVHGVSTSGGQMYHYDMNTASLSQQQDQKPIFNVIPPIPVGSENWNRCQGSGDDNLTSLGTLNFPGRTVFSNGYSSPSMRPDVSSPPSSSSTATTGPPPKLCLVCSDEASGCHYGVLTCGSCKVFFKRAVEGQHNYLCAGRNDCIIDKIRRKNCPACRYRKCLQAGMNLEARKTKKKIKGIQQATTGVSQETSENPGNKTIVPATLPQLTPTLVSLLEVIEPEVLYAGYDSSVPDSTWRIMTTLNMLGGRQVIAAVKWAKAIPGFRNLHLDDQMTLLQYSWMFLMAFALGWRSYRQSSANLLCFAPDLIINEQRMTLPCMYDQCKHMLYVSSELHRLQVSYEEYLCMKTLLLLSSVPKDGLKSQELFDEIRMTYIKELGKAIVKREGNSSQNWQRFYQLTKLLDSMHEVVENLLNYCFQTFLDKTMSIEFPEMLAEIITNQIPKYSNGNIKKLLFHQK

Phospholipase PLA2-I = target: T4, Phospholipase PLA2-I (Sus scrofa, UniProt P00592); test: biochemical; set-up: Cerep/Eurofins selectivity panel, enzymes, per cent inhibition at 10 uM; conditions: read-out: % Inhibition
T4 construct: gene PLA2G1B
T4 sequence (P00592 whole entry): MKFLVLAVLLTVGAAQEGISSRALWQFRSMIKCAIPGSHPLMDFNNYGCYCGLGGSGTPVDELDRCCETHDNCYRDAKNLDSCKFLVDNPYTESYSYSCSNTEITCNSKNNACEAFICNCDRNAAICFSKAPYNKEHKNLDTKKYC

[2] = target: Protein Tyrosine Kinase, LYN B (Homo sapiens, UniProt P07948); test: biochemical; set-up: Cerep/Eurofins selectivity panel, enzymes, per cent inhibition at 10 uM; conditions: read-out: % Inhibition
[3] = target: T5, Protein Serine/Threonine Kinase, IKK-1 (Homo sapiens, UniProt O15111); test: biochemical; set-up: Cerep/Eurofins selectivity panel, enzymes, per cent inhibition at 10 uM; conditions: read-out: % Inhibition
T5 construct: gene CHUK

[4] = target: T6, Growth Hormone Secretogogue (GHS, Ghrelin) (Homo sapiens, UniProt Q92847); test: biochemical; set-up: Cerep/Eurofins selectivity panel, receptors, channels and transporters, per cent inhibition at 10 uM; conditions: read-out: % Inhibition
T6 construct: gene GHSR
T6 sequence (Q92847 whole entry): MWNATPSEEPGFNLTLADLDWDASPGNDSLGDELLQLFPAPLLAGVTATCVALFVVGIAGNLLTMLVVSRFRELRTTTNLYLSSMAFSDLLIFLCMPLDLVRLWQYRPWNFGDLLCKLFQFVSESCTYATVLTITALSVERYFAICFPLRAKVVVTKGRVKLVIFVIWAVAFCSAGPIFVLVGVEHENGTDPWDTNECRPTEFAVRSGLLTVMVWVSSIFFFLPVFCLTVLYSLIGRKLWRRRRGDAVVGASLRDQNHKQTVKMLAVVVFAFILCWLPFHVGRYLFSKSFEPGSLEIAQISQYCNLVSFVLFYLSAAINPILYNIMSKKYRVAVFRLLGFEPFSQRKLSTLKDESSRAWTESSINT

Insulin = target: T7, Insulin (Rattus norvegicus, UniProt P15127); test: biochemical; set-up: Cerep/Eurofins selectivity panel, receptors, channels and transporters, per cent inhibition at 10 uM; conditions: read-out: % Inhibition
T7 construct: gene Insr
T7 sequence (P15127 whole entry): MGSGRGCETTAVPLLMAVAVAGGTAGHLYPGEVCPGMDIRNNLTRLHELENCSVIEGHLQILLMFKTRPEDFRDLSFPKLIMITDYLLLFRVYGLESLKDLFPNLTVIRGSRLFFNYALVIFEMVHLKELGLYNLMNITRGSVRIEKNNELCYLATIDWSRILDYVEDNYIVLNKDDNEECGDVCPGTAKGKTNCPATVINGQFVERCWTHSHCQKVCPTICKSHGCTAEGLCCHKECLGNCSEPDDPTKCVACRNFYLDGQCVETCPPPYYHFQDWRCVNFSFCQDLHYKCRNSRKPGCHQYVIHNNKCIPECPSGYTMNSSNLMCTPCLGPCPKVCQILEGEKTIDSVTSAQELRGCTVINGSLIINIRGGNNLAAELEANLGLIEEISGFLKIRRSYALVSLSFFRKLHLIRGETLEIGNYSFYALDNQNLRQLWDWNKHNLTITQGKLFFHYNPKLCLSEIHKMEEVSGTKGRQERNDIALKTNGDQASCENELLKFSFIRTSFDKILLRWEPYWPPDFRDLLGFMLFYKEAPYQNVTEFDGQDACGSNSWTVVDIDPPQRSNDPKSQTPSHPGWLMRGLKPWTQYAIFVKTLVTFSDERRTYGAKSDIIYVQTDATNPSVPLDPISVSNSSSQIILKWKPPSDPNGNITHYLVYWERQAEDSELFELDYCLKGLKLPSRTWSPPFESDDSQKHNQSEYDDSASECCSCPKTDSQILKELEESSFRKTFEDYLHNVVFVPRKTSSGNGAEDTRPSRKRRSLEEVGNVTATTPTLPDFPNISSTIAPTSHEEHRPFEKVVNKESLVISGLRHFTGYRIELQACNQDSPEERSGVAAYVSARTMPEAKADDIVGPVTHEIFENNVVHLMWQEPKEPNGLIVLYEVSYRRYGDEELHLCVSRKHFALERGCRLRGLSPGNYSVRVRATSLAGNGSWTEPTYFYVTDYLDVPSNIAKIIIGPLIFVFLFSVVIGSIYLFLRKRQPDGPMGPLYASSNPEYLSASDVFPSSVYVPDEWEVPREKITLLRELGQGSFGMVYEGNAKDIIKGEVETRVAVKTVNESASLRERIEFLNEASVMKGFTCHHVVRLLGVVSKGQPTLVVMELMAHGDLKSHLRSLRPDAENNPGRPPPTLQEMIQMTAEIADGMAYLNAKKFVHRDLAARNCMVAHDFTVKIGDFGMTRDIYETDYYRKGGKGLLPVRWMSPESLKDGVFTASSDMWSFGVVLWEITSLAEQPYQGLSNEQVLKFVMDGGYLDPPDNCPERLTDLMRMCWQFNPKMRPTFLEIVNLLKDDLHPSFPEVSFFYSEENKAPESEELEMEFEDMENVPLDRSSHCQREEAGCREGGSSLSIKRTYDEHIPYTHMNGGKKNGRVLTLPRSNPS

[5] = target: T8, Serotonin (5-Hydroxytryptamine) 5-HT4 (Cavia porcellus, UniProt O70528); test: biochemical; set-up: Cerep/Eurofins selectivity panel, receptors, channels and transporters, per cent inhibition at 10 uM; conditions: read-out: % Inhibition
T8 construct: gene HTR4

Opiate δ1 (OP1, DOP) = target: T9, Opiate δ1 (OP1, DOP) (Homo sapiens, UniProt P41143); test: biochemical; set-up: Cerep/Eurofins selectivity panel, receptors, channels and transporters, per cent inhibition at 10 uM; conditions: read-out: % Inhibition
T9 construct: gene OPRD1

Adrenergic β1 = target: T10, Adrenergic β1 (Homo sapiens, UniProt P08588); test: biochemical; set-up: Cerep/Eurofins selectivity panel, receptors, channels and transporters, per cent inhibition at 10 uM; conditions: read-out: % Inhibition
T10 construct: gene ADRB1

Angiotensin AT1 = target: T11, Angiotensin AT1 (Homo sapiens, UniProt P30556); test: biochemical; set-up: Cerep/Eurofins selectivity panel, receptors, channels and transporters, per cent inhibition at 10 uM; conditions: read-out: % Inhibition
T11 construct: gene AGTR1
T11 sequence (P30556 whole entry): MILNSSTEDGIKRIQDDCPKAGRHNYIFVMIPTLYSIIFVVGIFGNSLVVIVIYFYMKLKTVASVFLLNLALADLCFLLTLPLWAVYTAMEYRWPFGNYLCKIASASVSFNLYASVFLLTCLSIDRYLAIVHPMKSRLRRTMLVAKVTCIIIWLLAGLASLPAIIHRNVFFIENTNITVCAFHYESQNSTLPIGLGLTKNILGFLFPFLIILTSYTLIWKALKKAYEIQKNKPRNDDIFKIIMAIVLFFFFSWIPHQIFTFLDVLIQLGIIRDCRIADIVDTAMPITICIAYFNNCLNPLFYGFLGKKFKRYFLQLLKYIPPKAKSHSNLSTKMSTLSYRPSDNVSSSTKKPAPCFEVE

APJ = target: T12, APJ (Homo sapiens, UniProt P35414); test: biochemical; set-up: Cerep/Eurofins selectivity panel, receptors, channels and transporters, per cent inhibition at 10 uM; conditions: read-out: % Inhibition
T12 construct: gene APLNR
T12 sequence (P35414 whole entry): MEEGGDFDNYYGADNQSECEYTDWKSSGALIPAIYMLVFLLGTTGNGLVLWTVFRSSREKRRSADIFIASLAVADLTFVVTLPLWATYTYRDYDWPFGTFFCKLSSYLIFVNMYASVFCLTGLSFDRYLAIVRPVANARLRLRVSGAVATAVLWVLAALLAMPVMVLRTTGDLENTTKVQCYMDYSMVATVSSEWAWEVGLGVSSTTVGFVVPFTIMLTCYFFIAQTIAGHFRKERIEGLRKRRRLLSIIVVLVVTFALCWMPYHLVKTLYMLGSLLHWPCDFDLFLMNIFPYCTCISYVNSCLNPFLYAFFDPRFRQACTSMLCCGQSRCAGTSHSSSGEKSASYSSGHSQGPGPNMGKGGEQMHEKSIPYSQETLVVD

Dopamine D4.2 = target: T13, Dopamine D4.2 (Homo sapiens, UniProt P21917); test: biochemical; set-up: Cerep/Eurofins selectivity panel, receptors, channels and transporters, per cent inhibition at 10 uM; conditions: read-out: % Inhibition
T13 construct: gene DRD4; D4.2

Angiotensin AT2 = target: T14, Angiotensin AT2 (Homo sapiens, UniProt P50052); test: biochemical; set-up: Cerep/Eurofins selectivity panel, receptors, channels and transporters, per cent inhibition at 10 uM; conditions: read-out: % Inhibition
T14 construct: gene AGTR2

Histamine H1 = target: T15, Histamine H1 (Homo sapiens, UniProt P35367); test: biochemical; set-up: Cerep/Eurofins selectivity panel, receptors, channels and transporters, per cent inhibition at 10 uM; conditions: read-out: % Inhibition
T15 construct: gene HRH1

Dopamine D1 = target: T16, Dopamine D1 (Homo sapiens, UniProt P21728); test: biochemical; set-up: Cerep/Eurofins selectivity panel, receptors, channels and transporters, per cent inhibition at 10 uM; conditions: read-out: % Inhibition
T16 construct: gene DRD1

Adenosine A1 = target: T17, Adenosine A1 (Homo sapiens, UniProt P30542); test: biochemical; set-up: Cerep/Eurofins selectivity panel, receptors, channels and transporters, per cent inhibition at 10 uM; conditions: read-out: % Inhibition
T17 construct: gene ADORA1

[6] = target: T18, Serotonin (5-Hydroxytryptamine) 5-HT3 (Homo sapiens, UniProt P46098); test: biochemical; set-up: Cerep/Eurofins selectivity panel, receptors, channels and transporters, per cent inhibition at 10 uM; conditions: read-out: % Inhibition
T18 construct: gene HTR3A

Vasopressin V2 = target: T19, Vasopressin V2 (Homo sapiens, UniProt P30518); test: biochemical; set-up: Cerep/Eurofins selectivity panel, receptors, channels and transporters, per cent inhibition at 10 uM; conditions: read-out: % Inhibition
T19 construct: gene AVPR2

Opiate κ(OP2, KOP) = target: T20, Opiate κ(OP2, KOP) (Homo sapiens, UniProt P41145); test: biochemical; set-up: Cerep/Eurofins selectivity panel, receptors, channels and transporters, per cent inhibition at 10 uM; conditions: read-out: % Inhibition
T20 construct: gene OPRK1
T20 sequence (P41145 whole entry): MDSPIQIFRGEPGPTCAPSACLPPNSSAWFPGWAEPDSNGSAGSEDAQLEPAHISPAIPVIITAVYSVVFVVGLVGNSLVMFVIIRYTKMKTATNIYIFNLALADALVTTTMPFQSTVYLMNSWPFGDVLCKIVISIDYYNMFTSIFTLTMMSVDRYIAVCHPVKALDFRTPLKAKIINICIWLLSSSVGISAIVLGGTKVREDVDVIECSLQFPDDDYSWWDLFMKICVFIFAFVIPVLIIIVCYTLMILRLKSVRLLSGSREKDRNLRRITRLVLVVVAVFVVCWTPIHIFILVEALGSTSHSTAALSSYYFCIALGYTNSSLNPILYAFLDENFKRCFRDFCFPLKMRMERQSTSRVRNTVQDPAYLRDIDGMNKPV

Cholecystokinin CCK2 = target: T21, Cholecystokinin CCK2 (Homo sapiens, UniProt P32239); test: biochemical; set-up: Cerep/Eurofins selectivity panel, receptors, channels and transporters, per cent inhibition at 10 uM; conditions: read-out: % Inhibition
T21 construct: gene CCKBR
T21 sequence (P32239 whole entry): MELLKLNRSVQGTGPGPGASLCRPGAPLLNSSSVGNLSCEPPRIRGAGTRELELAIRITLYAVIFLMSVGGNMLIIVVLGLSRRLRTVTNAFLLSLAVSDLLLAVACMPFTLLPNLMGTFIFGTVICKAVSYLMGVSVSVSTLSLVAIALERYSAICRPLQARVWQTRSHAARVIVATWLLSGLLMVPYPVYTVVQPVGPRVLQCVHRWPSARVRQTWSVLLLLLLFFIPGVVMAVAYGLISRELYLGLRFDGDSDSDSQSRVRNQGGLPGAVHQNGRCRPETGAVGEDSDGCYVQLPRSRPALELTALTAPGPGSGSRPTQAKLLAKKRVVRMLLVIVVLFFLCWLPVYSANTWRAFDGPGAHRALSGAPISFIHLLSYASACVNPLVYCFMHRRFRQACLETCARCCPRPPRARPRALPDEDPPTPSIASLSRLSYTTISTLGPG

[7] = target: Protein Serine/Threonine Kinase, CDC2/CCNB1 (CDK1/cyclinB) (Homo sapiens, UniProt P06493); test: biochemical; set-up: Cerep/Eurofins selectivity panel, enzymes, per cent inhibition at 10 uM; conditions: read-out: % Inhibition
Chain of Protein Serine/Threonine Kinase, CDC2/CCNB1 (CDK1/cyclinB) (P06493 whole entry): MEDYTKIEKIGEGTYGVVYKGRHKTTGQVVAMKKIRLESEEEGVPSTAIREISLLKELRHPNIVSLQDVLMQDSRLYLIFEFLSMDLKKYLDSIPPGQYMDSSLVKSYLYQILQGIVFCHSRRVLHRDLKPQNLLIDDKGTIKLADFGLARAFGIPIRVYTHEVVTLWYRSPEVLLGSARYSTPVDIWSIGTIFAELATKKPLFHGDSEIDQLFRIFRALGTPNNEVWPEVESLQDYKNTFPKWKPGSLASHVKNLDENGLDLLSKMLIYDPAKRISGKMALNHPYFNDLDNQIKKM
Chain of Protein Serine/Threonine Kinase, CDC2/CCNB1 (CDK1/cyclinB) (P14635 whole entry partner): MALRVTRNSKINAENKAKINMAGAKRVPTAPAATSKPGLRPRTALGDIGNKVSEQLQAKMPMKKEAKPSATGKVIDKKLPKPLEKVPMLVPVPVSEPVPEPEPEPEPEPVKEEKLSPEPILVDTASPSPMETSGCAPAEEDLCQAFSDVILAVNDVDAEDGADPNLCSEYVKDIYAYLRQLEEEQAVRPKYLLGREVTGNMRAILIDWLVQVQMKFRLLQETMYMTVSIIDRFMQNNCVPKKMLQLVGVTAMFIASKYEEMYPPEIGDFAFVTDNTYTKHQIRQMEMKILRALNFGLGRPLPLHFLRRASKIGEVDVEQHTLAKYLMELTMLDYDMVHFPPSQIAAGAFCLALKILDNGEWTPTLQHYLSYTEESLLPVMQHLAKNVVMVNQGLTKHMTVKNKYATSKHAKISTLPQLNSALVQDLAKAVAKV

[8] = target: T22, Hcrtr1 (orexin 1 receptor) (Homo sapiens, UniProt O43613); test: radioligand displacement of [3H]SB674042; also FLIPR Ca2+ antagonism in Chem-1 cells (IC50 […]); format: binding
T22 construct: membranes from CHO-K1 cells stably expressing HCRTR1

Anaphylatoxin C5a = target: T23, Anaphylatoxin C5a (Homo sapiens, UniProt P21730); test: biochemical; set-up: Cerep/Eurofins selectivity panel, receptors, channels and transporters, per cent inhibition at 10 uM; conditions: read-out: % Inhibition
T23 construct: gene C5AR1

## C[C@]1(Nc2cnc(C(F)(F)F)cn2)CCC[C@@H]1NC(=O)c1ncccc1-n1nccn1 [CVN45502]
Hcrtr2
  Ki: 4.66 pKi
[1]
  inhibition at 10 µM: 5%
Glucocorticoid
  inhibition at 10 µM: 13%
Phospholipase PLA2-I
  inhibition at 10 µM: 10%
[2]
  inhibition at 10 µM: 6%
[3]
  inhibition at 10 µM: -14%
[4]
  inhibition at 10 µM: -5%
Insulin
  inhibition at 10 µM: 2%
[5]
  inhibition at 10 µM: -4%
Opiate δ1 (OP1, DOP)
  inhibition at 10 µM: -4%
Adrenergic β1
  inhibition at 10 µM: -14%
Angiotensin AT1
  inhibition at 10 µM: -1%
APJ
  inhibition at 10 µM: -4%
Dopamine D4.2
  inhibition at 10 µM: -9%
Angiotensin AT2
  inhibition at 10 µM: 5%
Histamine H1
  inhibition at 10 µM: 2%
Dopamine D1
  inhibition at 10 µM: 2%
Adenosine A1
  inhibition at 10 µM: 7%
[6]
  inhibition at 10 µM: -9%
Vasopressin V2
  inhibition at 10 µM: -4%
Opiate κ(OP2, KOP)
  inhibition at 10 µM: 3%
Cholecystokinin CCK2
  inhibition at 10 µM: 5%
[7]
  inhibition at 10 µM: 14%
[8]
  Ki: 13.8 nM
Anaphylatoxin C5a
  inhibition at 10 µM: 6%
